Drawing on publication PMC2736202 (2009), this text covers Kd for one molecule.

SMILES strings stand for the structures.

Holding throughout (experiment): electrospray mass spectrometry
Assay [1] concerns UpsB-Q-1 (DNA, G4) CAGGGTTAAGGGTATAACTTTAGGGGTTAGGGTT
The conditions noted are these: NH4+ 150 mM (NH4OAc); 20% methanol; 10 μM DNA, equimolar 10 μM BOQ1 in Figure 6B.

Assay [2] relates to UpsB-Q-2 (DNA, G4) TAGGGTTAAGGGTATAACGTTAAGGGTTAGGGTT
The conditions noted are these: NH4+ 150 mM (NH4OAc); 20% methanol; 10 μM DNA.

Assay [3] concerns UpsB-Q-3 (DNA, G4) CAGGGTTAAGGGTATACATTTAGGGGTTAGGGTT
The conditions noted are these: NH4+ 150 mM (NH4OAc); 20% methanol; 10 μM DNA.

The test system of assay [4] is UpsB-Q-4 (DNA, G4) CAGGGTTTAGGGTATAACTTTAGGGGTTAGGGTT
Conditions: NH4+ 150 mM (NH4OAc); 20% methanol; 10 μM DNA.

As for `c1cc2nc3c4ccc5cc6cc(ccc6nc53)CNCCNCCNCc3ccc5nc6c(ccc7cc8cc(ccc8nc76)CNCCNCCNCc1cc2c4)cc5c3`, the Kd in assay [1] came out at 2.6 ± 0.5 µM; in assay [2] it was 1.4 ± 0.4 µM; in assay [3] it was 1.7 ± 0.7 µM; in assay [4], 2.7 ± 1.1 µM.
